Results from ChEMBL document CHEMBL1201862, “PubChem BioAssay data set” (2004).
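96-well plates; 48 h exposure; 5 concentrations. Endpoints by linear interpolation between flanking doses. Not reached: highest tested concentration assigned. GI50 marks 50% less growth.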 Calls of active or inactive are those of the source. Cut-off read from the data, not from the text of the source: active = GI50 up to about 1.1 µM and inactive = higher.

How the values were obtained:
Test in all cases: NCI-60 cell line screen, 48 h
MOLT-4 = tested on: MOLT-4
ACHN = tested on: ACHN
A498 = tested on: A498
MCF7 = tested on: MCF7
U-251 = tested on: U-251
HCC 2998 = tested on: HCC 2998
OVCAR-4 = tested on: OVCAR-4
LOX IMVI = tested on: LOX IMVI
M14 = tested on: M14
NCI-H522 = tested on: NCI-H522
OVCAR-5 = tested on: OVCAR-5
NCI-H460 = tested on: NCI-H460
HCT-15 = tested on: HCT-15
DU-145 = tested on: DU-145
SK-OV-3 = tested on: SK-OV-3
OVCAR-8 = tested on: OVCAR-8
RPMI-8226 = tested on: RPMI-8226
SF-268 = tested on: SF-268
HOP-62 = tested on: HOP-62
K562 = tested on: K562

CC(NNC(=O)c1ccncc1)c1ccc(Cl)c(Cl)c1 (stereo not given)
GI50 (MOLT-4): 48.9 µM (inactive) | GI50 (ACHN): > 100 µM (inactive) | GI50 (A498): 69.3 µM (inactive) | GI50 (MCF7): > 100 µM (inactive) | GI50 (U-251): > 100 µM (inactive) | GI50 (HCC 2998): > 100 µM (inactive) | GI50 (OVCAR-4): > 100 µM (inactive) | GI50 (LOX IMVI): > 100 µM (inactive) | GI50 (M14): 67.9 µM (inactive) | GI50 (NCI-H522): > 100 µM (inactive) | GI50 (OVCAR-5): > 100 µM (inactive) | GI50 (NCI-H460): > 100 µM (inactive) | GI50 (HCT-15): > 100 µM | GI50 (DU-145): > 100 µM (inactive) | GI50 (SK-OV-3): 19.6 µM (inactive) | GI50 (OVCAR-8): > 100 µM (inactive) | GI50 (RPMI-8226): 75.5 µM (inactive) | GI50 (SF-268): > 100 µM (inactive) | GI50 (HOP-62): > 100 µM (inactive) | GI50 (K562): 38.4 µM (inactive)

CNC1C(OC2C(OC3C(O)C(O)C(O)C(O)C3O)OC(C)C2(O)CO)OC(CO)C(O)C1O.N=C(N)N.NC(=O)O (stereo not given)
GI50 (MOLT-4): > 100 µM (inactive) | GI50 (ACHN): > 100 µM (inactive) | GI50 (A498): > 100 µM (inactive) | GI50 (MCF7): > 100 µM (inactive) | GI50 (U-251): > 100 µM (inactive) | GI50 (HCC 2998): > 100 µM (inactive) | GI50 (OVCAR-4): > 100 µM (inactive) | GI50 (LOX IMVI): > 100 µM (inactive) | GI50 (M14): > 100 µM (inactive) | GI50 (NCI-H522): > 100 µM (inactive) | GI50 (OVCAR-5): > 100 µM (inactive) | GI50 (NCI-H460): > 100 µM (inactive) | GI50 (HCT-15): > 100 µM | GI50 (DU-145): > 100 µM (inactive) | GI50 (SK-OV-3): > 100 µM (inactive) | GI50 (OVCAR-8): > 100 µM (inactive) | GI50 (RPMI-8226): > 100 µM (inactive) | GI50 (SF-268): > 100 µM (inactive) | GI50 (HOP-62): > 100 µM (inactive) | GI50 (K562): > 100 µM (inactive)
